Data set [1] can be described thus: Photodecomposition kinetics and quantum yields at 366 nm (benzophenone-benzhydrol actinometry). It is filed as physicochemical. The method, then: Kinetic studies are carried out in degassed, sealed tubes by irradiating them with 366 nm light obtained from a Hanovia medium-pressure mercury lamp by combining the Corning Filters 0-52 and 7-60. The decompositions of the […] followed by the carbonyl IR absorption adjacent to the peroxide group (O=COO--) (1770 cm^-1). Benzophenone-benzhydrol redox actinometry are used throughout the study. In particular, a solution of […] (2 mL) in the appropriate solvent is placed in Pyrex tubes (12-mm diameter), degassed, and sealed under vacuum. Three cycles of freeze-thaw removes dissolved oxygen. The tubes are placed in a merry-go-round around a water-cooled light source, removed at different predetermined intervals, and kept frozen in liquid nitrogen in the dark until analysis is done. The estimation of […] done by quantitative IR, monitoring the carbonyl peak at 1770 cm^-1. […] Absorbance is measured with a 0.1 mm NaCl cell against solvent reference. With every run, two tubes containing actinometric solutions (benzophenone (0.1 M) and benzhydrol (0.05 M) in benzene are irradiated.

Data set [2] is described as follows: Thermal stability / thermal decomposition of peresters in the dark. The format is physicochemical. To be noted: 110° C., chlorobenzene, dark; initial concn Ia 5.01, Ib 5.15, Ic 5.19 × 10^-2 M.
Data set [3] can be described thus: Polymerization of methyl methacrylate. As to conditions: initiator 5 × 10^-2 M, [MMA] = 3.1 M, 25° C., benzene. The method, then:
(§1) Commercial methyl methacrylate monomer is washed three times with 2% NaOH solution to remove stabilizer. It is then washed with distilled water three times, dried with molecular sieves, and distilled under vacuum before use. Polymerization solutions are prepared in cylindrical tubes which are degassed and sealed. The amount of polymer formed is determined by precipitating the polymer with an excess of methanol, washing with methanol, and filtering through fine sintered crucibles (previously weighed) followed by drying in a vacuum oven. The irradiation condition is the same as that in the decomposition rate example hereinabove.

A short description of data set [4]: Relative quantum yield of initiator decomposition in presence of monomer (IR at 1770 cm^-1). It is filed as physicochemical. As to conditions: benzene, initiator 2 × 10^-2 M. The method, then:
as §1
The irradiations are carried out in degassed (three cycles of freeze-thaw under high vacuum) sealed 15-mm Pyrex tubes. The tubes are placed in a merry-go-round with a filtered UV source of 366 nm at the center and the yield of polymer is measured (below 10% conversion) gravimetrically. In all of the cases, tubes of the same size and same volume of solution are used. Number-average molecular weights of the purified polymers are determined by viscometry in a benzene solution. […] The solution then is centrifuged and the IR of the centrifugate is measured to determine undecomposed perester. […] The light intensity is measured by benzophenone-benzhydrol actinometry and observed to be Io =6.56×10^17 quanta/min on the average. […]

Each structure is given as a SMILES string.

Turning to `CC(C)(C)OOC(=O)c1ccc(C(=O)c2ccccc2)cc1` [Ia, t-Butyl-4-Benzoylperbenzoate], the “photodecomposition behaviour, in words” value in data set [1] (366 nm radiation, room temperature) is on record as “decomposes smoothly at room temperature”. The “apparent first-order photodecomposition rate constant kd × 10^4” value in data set [1] (C6 H6, 25° C., 366 nm, I = 6.56 × 10^17 quanta/min, 5.03-6.06 × 10^-2 M, given as kd × 10^4) is listed as 1.84 s^-1. Besides, the “quantum yield of decomposition (φ of dec)” value came to 0.94 in data set [1] (C6 H6, 366 nm, perester 5.03-6.06 × 10^-2 M); 0.74 in data set [1] (CCl4, 3.56 × 10^-2 M, TBP 3.76 × 10^-2 M); 0.90 in data set [1] (CCl4, 3.56 × 10^-2 M, no TBP); 0.79 in data set [1] (CCl4, 4.78 × 10^-2 M, TBP 5.01 × 10^-2 M); 1.05 in data set [1] (CCl4, 7.16 × 10^-2 M, no TBP); 0.64 in data set [1] (methanol, TBP 5.08 × 10^-2 M, Ia 5.38, Ib 6.15 × 10^-2 M). Moreover, in data set [1] (methanol, no TBP, Ia 5.38, Ib 6.15, Ic 5.10 × 10^-2 M), the “quantum yield of decomposition (φ of dec)” value is on record as 2.77. In addition, in data set [2], the “thermal 1st order dec rate × 10^5” value came to 2.88 M × 10^5 s^-1. Moreover, in data set [2], the “thermal half-life t1/2” value is given as 6.7 h. In addition, the “Rate of Polymerization (Rp) of MMA, Rp × 10^5” value in data set [3] came out at 8.33 mL^-1 s^-1. The “relative quantum yield φrel of decomposition” value amounted to 0.88 in data set [4] (methyl methacrylate 2.34 M) and 0.80 in data set [4] (methyl methacrylate 4.68 M).
